Test results from patent publication US4376772A, “Use of piperazinyl-imidazo[1,2-a]pyrazines in sedation” (Merck & Co., Inc., priority 1981, dated 1983).

Columns and labels:
[1] = target: T1, α2-adrenergic receptor ([3H] clonidine binding site in calf cerebral cortex) (Bos taurus, UniProt Q28838); experiment: α2-adrenergic receptor binding ([3H] clonidine binding site)
T1 construct: from tissue; host or cells: calf cerebral cortex
T1 sequence (Q28838 1-468): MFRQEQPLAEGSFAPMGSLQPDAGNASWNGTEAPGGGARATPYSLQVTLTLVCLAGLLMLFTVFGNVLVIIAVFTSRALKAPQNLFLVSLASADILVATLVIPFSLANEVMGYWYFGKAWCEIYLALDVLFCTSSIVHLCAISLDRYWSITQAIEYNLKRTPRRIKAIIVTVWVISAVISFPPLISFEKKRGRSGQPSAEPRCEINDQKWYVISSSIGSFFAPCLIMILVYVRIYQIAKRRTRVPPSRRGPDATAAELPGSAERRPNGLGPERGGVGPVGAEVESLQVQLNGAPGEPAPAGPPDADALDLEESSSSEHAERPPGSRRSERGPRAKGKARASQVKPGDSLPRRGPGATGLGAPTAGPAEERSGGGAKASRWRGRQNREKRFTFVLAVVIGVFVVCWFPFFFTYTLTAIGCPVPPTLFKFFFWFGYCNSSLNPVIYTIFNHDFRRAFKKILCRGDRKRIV
Description: Binding to the α2 -adrenergic receptor was determined by the method of Lyon and Randall, Life Sciences, 26, 1121 (1980) and also is expressed in Table I as Ki representing the affinity of each compound for the [^3 H] clonidine binding site in calf cerebral cortex.

[2] = target: α1-adrenergic receptor ([3H] prazosin binding site in calf cerebral cortex); experiment: α1-adrenergic receptor binding ([3H] prazosin binding site)
Description: The α1 - and α2 -adrenergic receptor binding as determined for some of the active compounds of this invention are shown in Table I.
Extent of binding to the α1 -adrenergic receptor was determined by the method of Greengrass and Bremner, Eur. J. Pharmacol., 55, 323 (1979) and is expressed in Table I as Ki, representing the affinity of each compound for the [^3 H] prazosin binding site in calf cerebral cortex.

[3] = tested on: α-Methyldopa (α-MD) Depression of Rat Locomotor Activity; experiment: Antagonism of α-methyldopa (α-MD) depression of rat locomotor activity; format: in vivo, Female Sprague-Dawley rats; settings: 20-minute period
From the text: Female Sprague-Dawley rats (Sprague-Dawley, Madison, Wis.) weighing 55-90 g were used in these studies. The test apparatus consisted of 10 activity chambers in a closed metal cabinet separated into individual compartments measuring 43×43 cm with a solid partition between each chamber. Ventilation in the cabinet was provided by two high speed fans, and background noise was supplied with a Grason-Stadler Noise Generator. The activity chambers were constructed from clear plexiglass cylinders, 30 cm high by 30 cm in diameter. Two infrared photocells were mounted at a height of 3 cm above the floor, the receivers being at the same height and directly opposite. Interruption of either of the beams registered independently as an activity count. The accumulated locomotor activity counts were stored in a microprocessor-based acquisition system and printed out at a preprogrammed interval on an ASR-33 Teletype unit. The decrease in locomotor activity caused by α-MD is most readily demonstrable during the time immediately following introduction of the rats into the test apparatus. Therefore, activity counts were recorded for a 20-minute period, beginning with placement of the animals in the test chambers. Animals with the various treatments were systematically rotated through the chambers. […] Dunnett's test was used for comparison of several treatment groups with a control group and the least significant difference test for comparison of the means of any two treatment groups. A P value of 0.05 (two-sided) was considered as indicating significance.
Animals were pretreated (3 hours, 4 minutes) with α-MD (200 or 400 mg/kg, p.o.), and various doses of 8-(1-piperazinyl)imidazo[1,2-a]pyrazine.2HCl.H2 O (0.11-3.0 mg/kg, sc) 40 minutes prior to testing. Vehicles used in control animals were 1% methylcellulose (in which α-MD was suspended) and saline (in which the experimental compound was dissolved).

[4] = tested on: sedation produced by clonidine; settings: Drew et al., 1979; cited from earlier work
[5] = tested on: locomotor depressant effects of methyldopa in rats; settings: Clineschmidt et al., 1980; cited from earlier work
[6] = tested on: clonidine-induced sedation in man; settings: Autret et al., 1977; cited from earlier work

CN1CCN(c2nc(Cl)cn3ccnc23)CC1 [Compound 4]
Ki [1]: 121 nM | Ki [2]: 380 nM

c1cn2ccnc2c(N2CCNCC2)n1 [Compound 3, 8-(1-piperazinyl)imidazo[1,2-a]pyrazine]
Ki [1]: 15 nM | Ki [2]: 3100 nM

Clc1cnc2c(N3CCNCC3)nccn12 [Compound 2]
Ki [1]: 240 nM | Ki [2]: 2800 nM

Cl.Cl.O.c1cn2ccnc2c(N2CCNCC2)n1 [Compound, 8-(1-piperazinyl)imidazo[1,2-a]pyrazine dihydrochloride hydrate]
locomotor activity (square roots of activity counts) ([3]; experiment 1, compound 0.11 mg/kg s.c. 40 min, with α-MD 400 mg/kg p.o.): 5.1 ± 0.5 | locomotor activity (square roots of activity counts) ([3]; experiment 1, compound 0.33 mg/kg s.c. 40 min, with α-MD 400 mg/kg p.o.): 8.4 ± 0.9 | locomotor activity (square roots of activity counts) ([3]; experiment 1, compound 1.0 mg/kg s.c. 40 min, with α-MD 400 mg/kg p.o.): 11.7 ± 1.3 | locomotor activity (square roots of activity counts) ([3]; experiment 1, compound 3 mg/kg s.c. 40 min after α-MD 400 mg/kg p.o.): 11.6 ± 1.3 | locomotor activity (square roots of activity counts) ([3]; experiment 2, compound 0.11 mg/kg s.c. 40 min, with α-MD 200 mg/kg p.o.): 8.4 ± 1.1 | locomotor activity (square roots of activity counts) ([3]; experiment 2, compound 0.33 mg/kg s.c. 40 min, with α-MD 200 mg/kg p.o.): 9.5 ± 1.2 | locomotor activity (square roots of activity counts) ([3]; experiment 2, compound 1.0 mg/kg s.c. 40 min, with α-MD 200 mg/kg p.o.): 11.4 ± 1.2 | locomotor activity (square roots of activity counts) ([3]; experiment 2, compound 3.0 mg/kg s.c. 40 min, with α-MD 200 mg/kg p.o.): 12.2 ± 1.2

C[C@](N)(Cc1ccc(O)c(O)c1)C(=O)O [α-MD, α-Methyldopa, reference compound]
locomotor activity (square roots of activity counts) ([3]; experiment 1, α-MD 400 mg/kg p.o. 3 hr + saline s.c.): 4.7 ± 0.7 | locomotor activity (square roots of activity counts) ([3]; experiment 2, α-MD 200 mg/kg p.o. 3 hr + saline s.c.): 6.8 ± 0.5

COC(=O)[C@@H]1[C@H]2C[C@H]3c4[nH]c5ccccc5c4CCN3C[C@@H]2CC[C@@H]1O [yohimbine]
effect on sedation produced by clonidine [4]: antagonizes the sedation produced by clonidine | effect on locomotor depressant effects of methyldopa [5]: antagonizes | effect on clonidine-induced sedation in man [6]: reduce clonidine-induced sedation in man

Clc1cn2ccnc2c(N2CCNCC2)n1 [Compound 1]
Ki [1]: 73 nM | Ki [2]: 250 nM
